Data on 7 compounds can be found in patent US12486300B2, “Mithramycin oxime derivatives having increased selectivity and anti-cancer activity” (University of Kentucky Research Foundation, priority 2018, dated 2025).

Bounds are passed on as bounds.

For data set [1], the system named is TC32 Ewing sarcoma cells, expressing EWS-FLI1. Kind of data set: Growth inhibition assay, TC32 cells. Format: cell-based. To be noted: for TC32 vs. PC3 / IC50: Table 1C; for TC32 vs. PC3: cellular selectivity; for IC50: read-out: IC50 TC-32; for EC50: Table 1D, read-out: TC-32 Mean EC50; for PC:TC32 (cellular selectivity): ratio of GI50 PC3 to TC32.
Data set [2] deals with PC3 Prostate Cancer Cells. In words: Growth inhibition assay, PC3 cells. It is filed as cell-based. To be noted: for IC50: Table 1C; for EC50: Table 1D. How it is done:
(§1) Growth inhibition assay to assess cytotoxicity in ETS vs non-ETS expressing cells. Cells were seeded in clear 96-well plates (VWR, Radnor, PA). Seeding densities were optimized for each cell line to support 5 days of linear growth. Following a 24 hours attachment period, cells in duplicate wells were treated with half-log increments of respective compounds (0 nM and 0.3 nM-10 μM). Working stocks were prepared from an initial 10 mM drug stock diluted in either 100% ethanol or dimethyl sulfoxide (DMSO). All wells contained a final concentration of 0.1% (v/v) respective organic solvent. Immediately following treatment, cell viability was measured for vehicle control (Day 0) wells. Cell viability was measured in the remaining wells after 72 hours of incubation with compound or vehicle control (Day 3).
(§2) Percent viability, relative to the initial cell seeding concentration, was calculated by ((TreatmentDay3−Vehicle ControlDay0)/(Vehicle ControlDay3−Vehicle ControlDay0))×100. Percent cell viability was plotted as a function of compound concentration (Log [M]) and the data were fit using a 3-parameter non-linear model with fixed Hill slope constant and 4-parameter non-linear model with variable Hill slope constant. The model with the best curve fit was used to estimate the GI50 in GraphPad Prism 7.0 software (GraphPad Software, La Jolla, CA). The 3-parameter equation used was Y=Bottom+(Top−Bottom)/(1+10[…]((X−Log[IC50]))). The 4-parameter equation used was Y=Bottom+(Top−Bottom)/(1+10[…]((Log[IC50]−X)*Hillslope)). Top and Bottom are plateaus in the units of the Y-axis (response). IC50 is the response (Y-axis) halfway between Top and Bottom plateaus.
All compounds were tested at least once in multi-well replicates and each experiment included one a control compound (i.e., MTM) to ensure the stable response of the cell lines. The selectivity index was estimated by determining the ratio of GI50 estimates between ETS fusion negative and ETS fusion positive cell lines.

The subject of data set [3] is G-401 (ATTC Cat. No., CRL-1441); Rhabdoid tumor of the kidney. In words: Growth inhibition assay, G-401 cells. To be noted: for IC50: Table 1C; for EC50: Table 1D. Format: cell-based. As to the method: as §1, with “3). For viability measurements, 0.1 mM resazurin (Sigma, St. Louis, MO) was added to wells and following 3 hours of incubation at 37° C., fluorescence readings ([…]) were recorded using a SpectraMax M5 plate reader (Molecular Devices, Sunnyvale, CA).” for “3).”
as §2
(§3) GI50 values were determined by pooling all available experiments and reported with 95% confidence interval, calculated from GraphPad Prism 7.0 software curve fit. All compounds were tested at least once in multi-well replicates and each experiment included one a control compound (i.e., MTM) to ensure the stable response of the cell lines. The selectivity index was estimated by determining the ratio of GI50 estimates between ETS fusion negative and ETS fusion positive cell lines.

The subject of data set [4] is A-204 (ATTC Cat. No., HTB-82); Rhabdomyosarcoma (embryonal). In words: Growth inhibition assay, A-204 cells. Format: cell-based. The settings on record: for IC50: Table 1C; for EC50: Table 1D. How it is done:
as §1, with “3). For viability measurements, 0.1 mM resazurin (Sigma, St. Louis, MO) was added to wells and following 3 hours of incubation at 37° C., fluorescence readings ([…]) were recorded using a SpectraMax M5 plate reader (Molecular Devices, Sunnyvale, CA).” for “3).”
as §2, §3

Data set [5] relates to RH30 muscle rhabdomyosarcoma. In words: Growth inhibition assay, RH30 cells. Format: cell-based. The settings on record: Table 1D. How it is done: as §1, with “3). For viability measurements, 0.1 mM resazurin (Sigma, St. Louis, MO) was added to wells and following 3 hours of incubation at 37° C., fluorescence readings ([…]) were recorded using a SpectraMax M5 plate reader (Molecular Devices, Sunnyvale, CA).” for “3).”
as §2, §3

The next data set has as its system U-2 OS bone osteosarcoma. Kind of data set: Growth inhibition assay, U-2 OS cells. It is filed as cell-based. To be noted: Table 1D. As to the method: as §1, with “3). For viability measurements, 0.1 mM resazurin (Sigma, St. Louis, MO) was added to wells and following 3 hours of incubation at 37° C., fluorescence readings ([…]) were recorded using a SpectraMax M5 plate reader (Molecular Devices, Sunnyvale, CA).” for “3).”
as §2, §3

Data set [6] can be described thus: IV bolus pharmacokinetics in monkey. Format: in vivo. The settings on record: single monkey, IV bolus 10 mg/kg, 2-compartment modeling. How it is done: Reference is made to FIGS. 6A and 6B. MTM and exemplary compound MTM(20) were each administered as an IV bolus injection (10 mg/kg) to assess the pharmacokinetics in a single monkey. Estimation of the area under the curve (AUC) was done by 2-compartment modeling. MTM20 has ˜3-fold lower clearance (CL) than mithramycin, which corresponds to an equivalent increase in exposure as measured by the AUC.

The subject of data set [7] is TC-32 cells (EWS-FLI1+) subcutaneously implanted. Kind of data set: Efficacy studies in mouse xenografts (TC-32). It is filed as in vivo, mice. The settings on record: for Significant? survival vs. Vehicle: overall significance level 0.05. How it is done:
Efficacy studies in mouse xenografts. TC-32 cells were suspended in 1:1 (v/v) media: Matrigel on ice and injected subcutaneously into the flank of female immunocompromised athymic nude NU/NU mice at a density of 1.0×10^6 cells per 100 μL. Mice with tumors of at least 75 mm^3 were randomly assigned to treatment groups, n=8-12 mice per group and n=6-10 mice per vehicle control treated group. Tumor volumes were monitored every 2-3 days and mice were euthanized once tumor volumes reached 1500 mm^3. In some experiments, tumors were allowed to grow to 20 mm in one direction prior to animals being removed from the study. Average tumor volume among the replicates were plotted, as well as survival plots, using GraphPad Prism 7.03 software. All animal studies were conducted under approved institutional animal care and use committee (IACUC) protocol.
Reference is made to FIGS. 3A-3G, which include data from an efficacy study involving exemplary compound MTM (20). TC-32 cells (EWS-FLI1+) were subcutaneously implanted in female NU/NU mice. Gray shadding starting at 0 days. indicates dosing window. FIG. 3B includes MTM20 at 21 mg/kg, FIG. 3C includes MTM20 at 15 mg/kg, FIG. 3D includes vehicle (control), FIG. 3E includes MTM (control) at 1 mg/kg, and FIG. 3F includes MTM (contro) at 0.65 mg/kg. Dosing route: IV bolus; Schedule: q2d×8.
Reference is made to FIGS. 4A and 4B, and Table 2, which include data from an efficacy/survival study involving exemplary compound MTM(20). TC-32 cells (EWS-FLI1+) were subcutaneously implanted in female NU/NU mice. FIG. 4A includes survival curves and FIG. 4B includes median survival plots of mice (n=6-7/group).
Further Efficacy Studies. Additional efficacy studies are ongoing with MTM20 at a daily schedule (total of 5 doses).
In comparison, nine of 10 tumor volumes, in the control group have increased by 50% or more and one increased approximately 15% above baseline.
In comparison all tumors in the control group grow by 30% or more relative to baseline.

The nature of data set [8]: Maximum tolerated dose, daily×5 schedule. Format: in vivo, mice.

The IC50 is the concentration that gives 50% inhibition. What is called EC50 is the concentration that produces a half-maximal response. As to `COC(C(=NOCC(=O)NC(Cc1c[nH]c2ccccc12)C(=O)N1CCOCC1)C(O)C(C)O)C1Cc2cc3cc(OC4CC(OC5CC(O)C(O)C(C)O5)C(O)C(C)O4)c(C)c(O)c3c(O)c2C(=O)C1OC1CC(OC2CC(OC3CC(C)(O)C(O)C(C)O3)C(O)C(C)O2)C(O)C(C)O1` (stereo not drawn) [MTM102], in [1], the “TC32 vs. PC3” value was determined as 17×. In addition, the IC50 in data set [1] worked out at 156 nM; in data set [2], 2700 nM; in data set [3] it was 514 nM; in data set [4], 2300 nM. The concentration giving a half-maximal response (EC50) amounted to 162 nM in [1], 1650 nM in data set [2], 591 nM in data set [3] and 2740 nM in data set [4].
Consider `CCN(CC)C(=O)C(Cc1c[nH]c2ccccc12)NC(=O)CON=C(C(O)C(C)O)C(OC)C1Cc2cc3cc(OC4CC(OC5CC(O)C(O)C(C)O5)C(O)C(C)O4)c(C)c(O)c3c(O)c2C(=O)C1OC1CC(OC2CC(OC3CC(C)(O)C(O)C(C)O3)C(O)C(C)O2)C(O)C(C)O1` (stereo not drawn) [MTM103], for which the EC50 in [1] amounted to 23.5 nM; in data set [2] it was 91.3 nM; in [3], 25.5 nM; in [4], 194 nM; in data set [5], 29.4 nM.
For `COC(C(=NOCC(=O)NC(Cc1c[nH]c2ccccc12)C(=O)N1CCC1)C(O)C(C)O)C1Cc2cc3cc(OC4CC(OC5CC(O)C(O)C(C)O5)C(O)C(C)O4)c(C)c(O)c3c(O)c2C(=O)C1OC1CC(OC2CC(OC3CC(C)(O)C(O)C(C)O3)C(O)C(C)O2)C(O)C(C)O1` (stereo not drawn) [MTM104], the “TC32 vs. PC3” value in [1] is listed as 8×. In addition, the IC50 was found to be 87 nM in [1], 730 nM in data set [2], 219 nM in [3] and 864 nM in data set [4]. The EC50 in data set [1] is 91.7 nM; in [2] it was 671 nM; in data set [3] it was 222 nM; in [4] it was 883 nM; in [5], 295 nM; in the data set with U-2 OS bone osteosarcoma, more than 10000 nM.
As for `COC(C(=NOCC(=O)NC(Cc1c[nH]c2ccccc12)C(=O)N1CC(C)(C)C1)C(O)C(C)O)C1Cc2cc3cc(OC4CC(OC5CC(O)C(O)C(C)O5)C(O)C(C)O4)c(C)c(O)c3c(O)c2C(=O)C1OC1CC(OC2CC(OC3CC(C)(O)C(O)C(C)O3)C(O)C(C)O2)C(O)C(C)O1` (stereo not drawn) [MTM105], the concentration for a half-maximal effect (EC50) is 29.4 nM in [1]; 177 nM in data set [2]; 23.4 nM in [3]; 45.9 nM in [5]; more than 10000 nM in the data set on U-2 OS bone osteosarcoma.
As to `COC(=O)C(Cc1c[nH]c2ccccc12)NC(=O)CON=C(C(O)C(C)O)C(OC)C1Cc2cc3cc(OC4CC(OC5CC(O)C(O)C(C)O5)C(O)C(C)O4)c(C)c(O)c3c(O)c2C(=O)C1OC1CC(OC2CC(OC3CC(C)(O)C(O)C(C)O3)C(O)C(C)O2)C(O)C(C)O1` (stereo not drawn) [MTM (20)], in [1], the “PC:TC32 (cellular selectivity)” value worked out at 24.5. The “lower clearance (CL) than mithramycin” value in data set [6] was approximately 3 fold. Moreover, in data set [7] (Experiment 1: 14.7 mg/kg (⅔ of MTD), daily schedule 5 doses, 2 days after end of treatment, 7 animals), the “reduction in tumor volume” value is reported as “greater than 50%”. In addition, the “tumor volumes decreased, of the original tumor volume” value in data set [7] (Experiment 2: 24 mg/kg (full MTD) daily×5, following the 4th dose) is reported as 10-70%. For the same compound, the “Significant? survival” value in [7] (MTM20 - 2/3MTD vs. MTM - 2/3MT), in [7] (MTM20 - 2/3MTD vs. MTM - MTD), in data set [7] (MTM20 - MTD vs. MTM20 - 2/3MTD), in data set [7] (MTM20 - MTD vs. MTM - 2/3MTD) and in [7] (MTM20 - MTD vs. MTM - MTD) was “No” in each case. Further, the “Significant? survival vs. Vehicle” value in data set [7] (at 2/3MTD) and in data set [7] (at MTD) was “Yes” in each case. Further, the “initial response with new dosing schedules” value in [7] (daily schedule (5 doses) compared to q2Dx8) is reported as “significantly improved”. Further, the “predicted efficacy of standard clinical dosing regimen” value in [7] (daily×5×2 weeks (qDx5×2w)) was “notably efficacious and potentially curative”. In [8], the “full MTD of the daily×5 schedule” value was 24 mg/kg.
As for `CNC(=O)[C@H](Cc1c[nH]c2ccccc12)NC(=O)CO/N=C(\[C@@H](O)[C@@H](C)O)[C@@H](OC)[C@@H]1Cc2cc3cc(O[C@H]4C[C@@H](O[C@H]5C[C@@H](O)[C@H](O)C(C)O5)[C@H](O)C(C)O4)c(C)c(O)c3c(O)c2C(=O)[C@H]1O[C@H]1C[C@@H](O[C@H]2C[C@@H](O[C@H]3C[C@](C)(O)[C@H](O)C(C)O3)[C@H](O)C(C)O2)[C@H](O)C(C)O1` (stereo partly drawn) [MTM (40)], the EC50 is 414 nM in data set [1]; 2900 nM in data set [2]; 40.2 nM in data set [3]; 256 nM in [4]; 1200 nM in data set [5]; more than 10000 nM in the data set with U-2 OS bone osteosarcoma. Moreover, in data set [1], the “PC:TC32 (cellular selectivity)” value was 11.8.
As to `CO[C@H](/C(=N/OCC(=O)N[C@@H](Cc1c[nH]c2ccccc12)c1nc(C)co1)[C@@H](O)[C@@H](C)O)[C@@H]1Cc2cc3cc(O[C@H]4C[C@@H](O[C@H]5C[C@@H](O)[C@H](O)C(C)O5)[C@H](O)C(C)O4)c(C)c(O)c3c(O)c2C(=O)[C@H]1O[C@H]1C[C@@H](O[C@H]2C[C@@H](O[C@H]3C[C@](C)(O)[C@H](O)C(C)O3)[C@H](O)C(C)O2)[C@H](O)C(C)O1` (stereo partly drawn) [MTM (57)], the 50% effective concentration (EC50) in data set [1] was 74 nM; in data set [2] it was more than 1680 nM; in data set [3], 712 nM; in data set [4], 3180 nM; in the data set on U-2 OS bone osteosarcoma, more than 10000 nM. In data set [1], the “PC:TC32 (cellular selectivity)” value amounted to 3.3.
